Test results as given in patent US11649245B2, “Cyclopropylamine compound as LSD1 inhibitor and use thereof” (HELIOEAST PHARMACEUTICAL CO., LTD., priority 2018, dated 2023).
pIC50: −log10 of the molar value. Counter-ions that a name gives are not always drawn.

Biological target: T1, hERG potassium ion channel (Homo sapiens, UniProt Q12809)
T1 construct: expressed in transfected cells; host or cells: CHO-hERG cells
Test: Inhibition test for hERG potassium ion channel (automatic patch-clamp, CHO-hERG cells)
Assay type: cell-based
Settings: Qpatch, highest test concentration 40 μM
Method: Experimental purpose: to detect the effect of the embodiments to be tested on the potassium ion channel of hERG by using the fully automatic patch-clamp method.
6.1.1 CHO-hERG cells were cultured in a 175 cm^2 culture flask, after the cell density was increased to 60-80%, the culture medium was removed, the cells were washed once with 7 mL PBS (Phosphate Buffered Saline), and then 3 mL digestive fluid was added for digestion.
6.1.2 After the digestion was complete, 7 mL of culture medium was added for neutralization, then the mixture was centrifuged, the supernatant was aspirated, and then 5 mL of culture medium was added for resuspention to ensure that the cell density was 2-5×10^6/mL.
The single-cell high-impedance sealing and the whole-cell mode formation process were all automatically completed by the Qpatch instrument of the Shanghai Institute of Materia Medica, Chinese Academy of Sciences. After the whole-cell recording mode was obtained, the cells were clamped at −80 millivolts. […] The data were recorded for 2 minutes, then extracellular fluid was administrated, and then the data were recorded for 5 minutes. […]
The experimental data were analyzed by XLFit software.

T1 sequence (Q12809 whole entry): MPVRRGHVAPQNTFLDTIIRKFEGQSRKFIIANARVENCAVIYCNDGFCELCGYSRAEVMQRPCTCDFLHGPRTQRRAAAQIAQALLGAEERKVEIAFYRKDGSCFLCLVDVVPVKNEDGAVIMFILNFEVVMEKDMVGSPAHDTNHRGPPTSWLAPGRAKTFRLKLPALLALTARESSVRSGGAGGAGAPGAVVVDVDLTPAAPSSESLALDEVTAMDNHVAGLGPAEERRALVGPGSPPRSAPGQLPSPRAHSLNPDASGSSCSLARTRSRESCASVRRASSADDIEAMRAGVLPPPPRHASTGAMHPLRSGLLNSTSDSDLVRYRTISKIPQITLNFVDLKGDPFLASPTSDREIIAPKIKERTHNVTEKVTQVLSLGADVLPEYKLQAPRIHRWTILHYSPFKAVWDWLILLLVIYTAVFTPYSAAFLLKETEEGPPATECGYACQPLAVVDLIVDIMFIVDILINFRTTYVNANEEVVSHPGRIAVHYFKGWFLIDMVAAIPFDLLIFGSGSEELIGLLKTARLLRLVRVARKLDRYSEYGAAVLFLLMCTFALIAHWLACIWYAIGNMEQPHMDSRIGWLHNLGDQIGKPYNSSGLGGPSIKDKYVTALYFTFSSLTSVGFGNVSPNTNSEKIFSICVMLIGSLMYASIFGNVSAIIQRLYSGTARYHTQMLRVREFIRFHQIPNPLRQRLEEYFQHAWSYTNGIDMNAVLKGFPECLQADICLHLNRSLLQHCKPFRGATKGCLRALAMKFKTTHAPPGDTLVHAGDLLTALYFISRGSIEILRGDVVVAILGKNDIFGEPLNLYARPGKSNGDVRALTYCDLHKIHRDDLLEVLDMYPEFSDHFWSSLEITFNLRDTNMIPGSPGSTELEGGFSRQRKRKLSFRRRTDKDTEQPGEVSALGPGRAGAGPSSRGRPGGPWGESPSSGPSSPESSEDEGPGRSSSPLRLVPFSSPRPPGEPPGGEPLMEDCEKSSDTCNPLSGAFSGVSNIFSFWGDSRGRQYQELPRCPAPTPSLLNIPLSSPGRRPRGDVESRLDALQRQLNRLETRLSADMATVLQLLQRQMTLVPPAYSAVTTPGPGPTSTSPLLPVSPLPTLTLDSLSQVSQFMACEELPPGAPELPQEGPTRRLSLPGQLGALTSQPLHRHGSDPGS

## O=C(O)c1ccc(CN2CCC3(CC2)CC(N[C@@H]2C[C@H]2c2ccccc2)CO3)cc1 (stereo partly shown) [Hydrochloride of the compound 6]
  pIC50: < 4.40
